Entries after “also recorded” stand apart in the source; their conditions may differ.
Experiments:
[1] = tested on: RPE1 cells expressing a doxycycline-inducible HORMAD1 construct; assay: Incucyte time-lapse confluence/proliferation in RPE1 cells with doxycycline-inducible HORMAD1; format: cell-based; conditions: for cellular growth / fitness of HORMAD1 expressing RPE1 cells versus vehicle-induced cells under drug: incucyte confluence, 200 nM BOS172722 or 20 nM AZD1152-HQPA 10 days, 3 μM BAY-1816032 14 days
Experimental: (§1) Cell confluence was analysed every 6 hours for 10 days, using incucyte software. Data are from 3 biological replicates and analysed using a two-way ANOVA. […] RPE1 cells expressing a doxycycline-inducible HORMAD1 expression construct were exposed to doxycycline or vehicle (H2O) and were exposed to 20 nM of the Aurora B inhibitor, AZD1152-HQPA. Cell confluence was analysed every 6 hours for 10 days, using incucyte software. Data are from 3 biological replicates and analysed using a two-way ANOVA. […] 7-10 days post drugging, cells were fixed, stained with SRB, and colonies were counted using Cell Profiler. […] 10 days post drugging, cells were fixed, stained with SRB, and colonies were counted using Cell Profiler. […] RPE1 cells expressing a doxycycline-inducible HORMAD1 expression construct were exposed to doxycycline or vehicle (H2O) and to increasing doses of the Aurora B inhibitor, AZD1152-HQPA. 7-10 days post drugging, cells were fixed, stained with SRB, and colonies were counted using Cell Profiler. […] SUM159 cells expressing a doxycycline-inducible HORMAD1 expression construct were exposed to doxycycline or vehicle (H2O) and to increasing doses of the Aurora B inhibitor, AZD1152-HQPA. 10 days post drugging, cells were fixed, stained with SRB, and colonies were counted using Cell Profiler.
RPE1 cells were reverse transfected with BUB1 or control siRNA particles for 3 days. Cell lysates were collected, and analysed by western blotting using anti-BUB1 and anti-β-ACTIN antibodies. […] RPE1 cells expressing a doxycycline-inducible HORMAD1 expression construct were exposed to doxycycline or vehicle, and were reverse transfected with BUB1 or control siRNA particles. 5 days post transfection, cellular viability was estimated using cell titer glo reagent and surviving fractions were calculated relative to DMSO treated cells. […] Statistical significance estimated using a one-way ANOVA with Sidak's correction. C. […] Cell lysates were collected, and analysed by SDS-PAGE and western blotting using anti-HORMAD1, anti-H3 and anti-BUB1 antibodies. […] 7-10 days post doxycycline induction, cells were fixed, stained with SRB, and cellular viability was estimated using SRB absorbance readings. […] Cells were fixed, stained with SRB, and cellular viability was estimated using SRB absorbance readings. […] Cells were imaged every 4 hours, and confluence was continually measured using incucyte software. […] Patient-derived organoids models were grown in culture and cell lysates collected and analysed using SDS-PAGE and western blotting using anti-HORMAD1 and anti-β-ACTIN antibodies. […] Cellular viability was estimated using cell titer glo reagent and surviving fractions were calculated relative to DMSO treated cells. […]

[2] = tested on: RPE1 cells expressing a doxycycline-inducible HORMAD1 construct; assay: Clonogenic survival assay (SRB) in RPE1 cells with doxycycline-inducible HORMAD1; format: cell-based; conditions: for clonogenic survival / sensitivity of HORMAD1 expressing versus HORMAD1-negative RPE1 cells: increasing doses, 7-14 days, normalised to vehicle
Experimental: as §1
RPE1 cells were reverse transfected with BUB1 or control siRNA particles for 3 days. Cell lysates were collected, and analysed by western blotting using anti-BUB1 and anti-β-ACTIN antibodies. […] RPE1 cells expressing a doxycycline-inducible HORMAD1 expression construct were exposed to doxycycline or vehicle, and were reverse transfected with BUB1 or control siRNA particles. 5 days post transfection, cellular viability was estimated using cell titer glo reagent and surviving fractions were calculated relative to DMSO treated cells. […] Statistical significance estimated using a one-way ANOVA with Sidak's correction. C. Western blot illustrating expression of HORMAD1 in wild-type RPE1 cells and RPE1 cells depleted of BUB1 using CRISPR. WT and BUB1 depleted RPE1 cells expressing a doxycycline-inducible HORMAD1 expression construct, were exposed to doxycycline or vehicle for 3 days. Cell lysates were collected, and analysed by SDS-PAGE and western blotting using anti-HORMAD1, anti-H3 and anti-BUB1 antibodies. […] WT and BUB1 depleted RPE1 cells expressing a doxycycline-inducible HORMAD1 expression construct were exposed to doxycycline or vehicle. 7-10 days post doxycycline induction, cells were fixed, stained with SRB, and cellular viability was estimated using SRB absorbance readings. […] Statistical significance estimated using a one-way ANOVA with Sidak's correction. […] RPE1 expressing a doxycycline-inducible HORMAD1 expression construct, were exposed to doxycycline or vehicle. […] Cells were fixed, stained with SRB, and cellular viability was estimated using SRB absorbance readings. […] Cells were imaged every 4 hours, and confluence was continually measured using incucyte software. Growth curves were plotted, based on confluence. Data represent 3 biological replicas. […] Patient-derived organoids models were grown in culture and cell lysates collected and analysed using SDS-PAGE and western blotting using anti-HORMAD1 and anti-β-ACTIN antibodies. […] Cellular viability was estimated using cell titer glo reagent and surviving fractions were calculated relative to DMSO treated cells. […] Left, dose response curves for each organoid.

Compound | confluency reached, HORMAD1 expressing RPE1 cells ([1]; 3 μM, 240 hours, incucyte) | confluency reached, RPE1 cells without HORMAD1 expression ([1]; 3 μM, 240 hours, incucyte) | cellular growth / fitness of HORMAD1 expressing RPE1 cells versus vehicle-induced cells under drug [1] | reduction of clonogenic capacity of RPE1 cells in presence of HORMAD1 expression compared to RPE1 cells not expressing HORMAD1 ([2]; 10 days post drugging) | clonogenic survival / sensitivity of HORMAD1 expressing versus HORMAD1-negative RPE1 cells [2]
COc1cnccc1Nc1nc(-c2nn(Cc3c(F)cc(OCCO)cc3F)c3ccccc23)ncc1OC [BAY-1816032] | around 15% | ~85% | decreased cellular fitness | 60% | increased cellular sensitivity
CCN(CCO)CCCOc1ccc2c(Nc3cc(CC(=O)Nc4cccc(F)c4)[nH]n3)ncnc2c1 [AZD1152-HQPA] | – | – | marked decrease in cellular growth; also recorded: decreased cellular fitness | – | more effectively inhibited; also recorded: reduced clonogenic survival; also recorded: increased Aurora B inhibitor sensitivity

Reference: patent publication US20240050434A1, “HORMAD1 THERAPEUTICS” (Royal Cancer Hospital, priority 2020, published 2024)
